23 compounds from patent US20260085082A1, “KDM1A INHIBITORS FOR THE TREATMENT OF DISEASE” (Imago Biosciences, Inc., priority 2022, published 2026) can be followed below.

Assay [1] has as its target LSD1 (Homo sapiens, UniProt O60341). Description: LSD1 10-dose IC50 fluorescence coupling enzyme assay (HRP/Amplex Red, resorufin). Format: biochemical. Particulars: 10 M histone H3(1-21)K4me2 peptide substrate; 3-fold serial dilution in duplicate starting at 100 μM. On the procedure: Compounds were tested in a 10-dose IC50 mode fluorescence coupling enzyme assay with 3-fold serial dilution in duplicate starting at 100 μM. The production of FAD-dependent H2O2 as a result of demethylase activity of LSD1 on […] histone H3(1-21)K4me2 peptide substrate was measured by coupling with HRP and Amplex Red to yield resorufin (fluorescence measured at Ex/Em=535/590 nm on EnVision, Perkin Elmer).

The subject of assay [2] is MV4;11 cells. Nature of the assay: Cell Titer-Glo Luminescent Cell Viability Assay, cell growth inhibition against MV4;11 cells. Format: cell-based. The note with it: Homo sapiens. The method, then:
Cell growth inhibition against MV4;11 cells was confirmed for the synthetic compounds. The Cell Titer-Glo Luminescent Cell Viability Assay (Promega, USA) was used to determine the number of viable cells in culture based on quantitation of the ATP present, which signals the presence of metabolically active cells. This assay was run in a 96-well plate format arrayed in a 10-point dose curve, ranging from 0 to 50 μM with 4-fold dilutions for each compound. Cells are seeded on Day 0 at 3750 cells per well. At Day 5, a portion of each well is assayed for viability according to the Cell Titer-Glo protocol. Briefly, cells/plates were centrifuged at 1100×g for 5 minutes. 100 μL of media was removed from each well and replaced with 100 μL of CellTiter-Glo. The plates were shaken at room temperature for 10 minutes and measured on a luminescence plate reader. Another portion of each well from the Day 5 plate is used to seed a new 96 plate containing fresh compound and media set up in the equivalent 10-point dose curve array in order to continue the cell growth inhibition assay for another 5 days. A final timepoint is collected at Day 10 using the Cell Titer-Glo protocol. Luminescence was detected on an EnVision® Multilabel Plate Reader (Perkin Elmer, Waltham, Mass.) and IC50 determination was made using Graph Pad Prism software.
For orientation: Cellular ATP, detected with luciferase, serves as a proxy for viable cell number.

The mark [3] stands for this setting: MV4-11, 120 h, MV4;11 cells, Day 5, 10-point dose curve 0 to 50 μM, read-out: Cell Titer Glo IC50 (5 d).
The mark [4] stands for this setting: MV4-11, MV4;11 cells, Day 10 (re-seeded at Day 5 with fresh compound), 10-point dose curve 0 to 50 μM, read-out: Cell Titer Glo IC50 (10 d).

Read-outs that look alike come from different tables or passages of the source.

Consider `COc1ccc(Cn2nc(C(=O)N3CCC[C@H](N)C3)cc2-c2ccc(C#N)c(F)c2)cc1` [Example 34, (S)-4-(3-(3-aminopiperidine-1-carbonyl)-1-(4-methoxybenzyl)-1H-pyrazol-5-yl)-2-fluorobenzonitrile 2,2,2-trifluoroacetate], for which the IC50 (usually the concentration that gives 50% inhibition) in assay [1] fell in the range of 0.5 to 1 µM; in assay [2] (setting [3]), 1 to 10 µM.
With `COc1ccc(-n2nc(C(=O)N[C@H]3CCNC3)cc2-c2ccc(C#N)c(F)c2)cc1` [Example 26, (S)-5-(4-cyano-3-fluorophenyl)-1-(4-methoxyphenyl)-N-(pyrrolidin-3-yl)-1H-pyrazole-3-carboxamide 2,2,2-trifluoroacetate], the IC50 fell in the range of 0.5 to 1 µM in assay [1] and 1 to 10 µM in assay [2] (setting [3]).
For `COc1ccc(-n2nc(-c3ccc(C#N)cc3)cc2C(=O)NC2CCCNC2)cc1` (stereo not drawn) [Example 5, 3-(4-Cyanophenyl)-1-(4-methoxyphenyl)-N-(piperidin-3-yl)-1H-pyrazole-5-carboxamide 2,2,2-trifluoroacetate] the same measures were 1 to 10 µM and above 10 µM.
Regarding `Cc1ccc(-n2nc(C(=O)N3CCC[C@@H](N)C3)cc2-c2ccc(C#N)c(F)c2)cc1` [Example 11, (R)-4-(3-(3-Aminopiperidine-1-carbonyl)-1-(p-tolyl)-1H-pyrazol-5-yl)-2-fluorobenzonitrile], the IC50 in assay [1], in assay [2] (setting [3]) and in assay [2] (setting [4]) was below 0.5 µM in each case.
In the case of `COC1CCN(c2ccc(-n3nc(C(=O)N4CCC[C@@H](N)C4)cc3-c3ccc(C#N)c(F)c3)nc2)CC1` [Example 53, (R)-4-(3-(3-aminopiperidine-1-carbonyl)-1-(5-(4-methoxypiperidin-1-yl)pyridin-2-yl)-1H-pyrazol-5-yl)-2-fluorobenzonitrile 2,2,2-trifluoroacetate], the values for the IC50 in assay [1] and in assay [2] (setting [4]) were 1 to 10 µM and below 0.5 µM, respectively.
For `CC1(O)CCN(c2ccc(-n3nc(C(=O)N4CCC[C@@H](N)C4)cc3-c3ccc(C#N)c(F)c3)cc2)CC1` [Example 47, (R)-4-(3-(3-aminopiperidine-1-carbonyl)-1-(4-(4-hydroxy-4-methylpiperidin-1-yl)phenyl)-1H-pyrazol-5-yl)-2-fluorobenzonitrile 2,2,2-trifluoroacetate], the IC50 in assay [1] and in assay [2] (setting [4]) was below 0.5 µM throughout.
For the compound `COc1ccc(-n2nc(C(=O)N[C@@H]3CCNC3)cc2-c2ccc(C#N)c(F)c2)cc1` [Example 27, (R)-5-(4-cyano-3-fluorophenyl)-1-(4-methoxyphenyl)-N-(pyrrolidin-3-yl)-1H-pyrazole-3-carboxamide 2,2,2-trifluoroacetate], the IC50 in assay [1] and in assay [2] (setting [3]) was 1 to 10 µM throughout.
As to `Cn1ncc2cc(-n3nc(C(=O)N4CCC[C@H](N)C4)cc3-c3ccc(C#N)c(F)c3)ccc21` [Example 42, (S)-4-(3-(3-aminopiperidine-1-carbonyl)-1-(1-methyl-1H-indazol-5-yl)-1H-pyrazol-5-yl)-2-fluorobenzonitrile 2,2,2-trifluoroacetate], the IC50 is below 0.5 µM in assay [1], 0.5 to 1 µM in assay [2] (setting [3]) and below 0.5 µM in assay [2] (setting [4]).
For `COc1ccc(-n2nc(C(=O)N[C@H]3CCC[C@@H](N)C3)cc2-c2ccc(C#N)c(F)c2)cc1` [Example 22, N-((1S,3R)-3-aminocyclohexyl)-5-(4-cyano-3-fluorophenyl)-1-(4-methoxyphenyl)-1H-pyrazole-3-carboxamide], the IC50 was 0.5 to 1 µM in assay [1] and 1 to 10 µM in assay [2] (setting [3]).
For `COc1ccc(-n2nc(C(=O)N[C@@H]3CCC[C@H](N)C3)cc2-c2ccc(C#N)c(F)c2)cc1` [Example 28, N-((1R,3S)-3-aminocyclohexyl)-5-(4-cyano-3-fluorophenyl)-1-(4-methoxyphenyl)-1H-pyrazole-3-carboxamide 2,2,2-trifluoroacetate] the same measures were 0.5 to 1 µM and 1 to 10 µM.
On to `Cn1cc2cc(-n3nc(C(=O)N4CCC[C@H](N)C4)cc3-c3ccc(C#N)c(F)c3)ccc2n1` [Example 44, (S)-4-(3-(3-aminopiperidine-1-carbonyl)-1-(2-methyl-2H-indazol-5-yl)-1H-pyrazol-5-yl)-2-fluorobenzonitrile 2,2,2-trifluoroacetate], for which the IC50 in assay [1], in assay [2] (setting [3]) and in assay [2] (setting [4]) was below 0.5 µM each time.
Regarding `COc1ccc(-n2nc(C(=O)N3CCC[C@@H](N)C3)cc2-c2ccc(C#N)c(F)c2)cc1` [Example 18, (R)-4-(3-(3-Aminopiperidine-1-carbonyl)-1-(4-methoxyphenyl)-1H-pyrazol-5-yl)-2-fluorobenzonitrile], the IC50 in assay [1], in assay [2] (setting [3]) and in assay [2] (setting [4]) was below 0.5 µM in each case.
As to `Cn1cc2cc(-n3nc(C(=O)N4CCCC(N)C4)cc3-c3ccc(C#N)c(F)c3)ccc2n1` (stereo not drawn) [Example 40, 4-(3-(3-Aminopiperidine-1-carbonyl)-1-(2-methyl-2H-indazol-5-yl)-1H-pyrazol-5-yl)-2-fluorobenzonitrile], the IC50 in assay [1] and in assay [2] (setting [3]) was below 0.5 µM throughout.
For `CN1CCN(c2ccc(-n3nc(-c4ccc(C#N)c(F)c4)cc3C(=O)N3CCC[C@@H](N)C3)cc2)CC1` [Example 58, (R)-4-(5-(3-aminopiperidine-1-carbonyl)-1-(4-(4-methylpiperazin-1-yl)phenyl)-1H-pyrazol-3-yl)-2-fluorobenzonitrile 2,2,2-trifluoroacetate], the IC50 in assay [1] and in assay [2] (setting [4]) was below 0.5 µM in each case.
On to `Cc1ccc(-n2nc(-c3ccc(C#N)c(F)c3)cc2C(=O)N2CCC(N)CC2)cc1` [Example 13, 4-(5-(4-Aminopiperidine-1-carbonyl)-1-(p-tolyl)-1H-pyrazol-3-yl)-2-fluorobenzonitrile], for which the IC50 in assay [1] and in assay [2] (setting [3]) was 1 to 10 µM throughout.
`N#Cc1ccc(-c2cc(C(=O)N3CCC[C@@H](N)C3)nn2-c2ccc(N3CCS(=O)(=O)CC3)cc2)cc1F` [Example 71, (R)-4-(3-(3-aminopiperidine-1-carbonyl)-1-(4-(1,1-dioxidothiomorpholino)phenyl)-1H-pyrazol-5-yl)-2-fluorobenzonitrile 2,2,2-trifluoroacetate]: the IC50 in assay [1] and in assay [2] (setting [4]) was below 0.5 µM in each case.
On to `N#Cc1ccc(-c2cc(C(=O)N3CCC[C@@H](N)C3)nn2-c2ccc(N3CCC(OCCCO)CC3)cc2)cc1F` [Example 69, (R)-4-(3-(3-Aminopiperidine-1-carbonyl)-1-(4-(4-(3-hydroxypropoxy)piperidin-1-yl)phenyl)-1H-pyrazol-5-yl)-2-fluorobenzonitrile 2,2,2-trifluoroacetate], for which the IC50 in assay [1] and in assay [2] (setting [4]) was below 0.5 µM each time.
Regarding `CN1CCN(c2ccc(-n3nc(C(=O)N4CCC[C@@H](N)C4)cc3-c3ccc(C#N)c(F)c3)c(F)c2)CC1=O` [Example 68, (R)-4-(3-(3-aminopiperidine-1-carbonyl)-1-(2-fluoro-4-(4-methyl-3-oxopiperazin-1-yl)phenyl)-1H-pyrazol-5-yl)-2-fluorobenzonitrile], the IC50 in assay [1] and in assay [2] (setting [4]) was below 0.5 µM in each case.
On to `COc1ccc(-n2nc(C(=O)N3CCC[C@H](N)C3)cc2-c2ccc(C#N)c(F)c2)cc1F` [Example 37, (S)-4-(3-(3-aminopiperidine-1-carbonyl)-1-(3-fluoro-4-methoxyphenyl)-1H-pyrazol-5-yl)-2-fluorobenzonitrile], for which the IC50 in assay [1] is 0.5 to 1 µM; in assay [2] (setting [3]) it was 1 to 10 µM.
Consider `N#Cc1ccc(-c2cc(C(=O)N3CCC[C@@H](N)C3)nn2-c2ccc(N3CCC(C#N)CC3)cc2)cc1F` [Example 48, (R)-1-(4-(3-(3-aminopiperidine-1-carbonyl)-5-(4-cyano-3-fluorophenyl)-1H-pyrazol-1-yl)phenyl)piperidine-4-carbonitrile 2,2,2-trifluoroacetate], for which the IC50 in assay [1] and in assay [2] (setting [4]) was below 0.5 µM each time.
With `N#Cc1ccc(-c2cc(C(=O)N3CCC[C@H](N)C3)nn2-c2ccc(N3CCCC3)cc2)cc1F` [Example 61, (S)-4-(3-(3-aminopiperidine-1-carbonyl)-1-(4-(pyrrolidin-1-yl)phenyl)-1H-pyrazol-5-yl)-2-fluorobenzonitrile 2,2,2-trifluoroacetate], the IC50 in assay [1], in assay [2] (setting [3]) and in assay [2] (setting [4]) was below 0.5 µM in each case.
With `COc1ccc(-n2nc(NC(=O)C3CCNCC3)cc2-c2ccc(C#N)c(F)c2)cc1` [Example 92, N-(5-(4-cyano-3-fluorophenyl)-1-(4-methoxyphenyl)-1H-pyrazol-3-yl)piperidine-4-carboxamide 2,2,2-trifluoroacetate], the IC50 is 0.5 to 1 µM in assay [1] and 1 to 10 µM in assay [2] (setting [3]).
For `COc1ccc(-n2nc(C(=O)NC3CCCNC3)cc2-c2ccc(C#N)cc2)cc1` (stereo not drawn) [Example 3, 5-(4-Cyanophenyl)-1-(4-methoxyphenyl)-N-(piperidin-3-yl)-1H-pyrazole-3-carboxamide 2,2,2-trifluoroacetate] the same measures were 1 to 10 µM and 1 to 10 µM.
